According to patent US6653529B2, “Use of the maize X112 mutant ahas 2 gene and imidazolinone herbicides for selection of transgenic monocots, maize, rice and wheat plants resistant to the imidazolinone herbicides” (BASF Aktiengesellschaft, priority 2000, dated 2003):

Legend:
Assay type in all cases: in vivo
[1] = test system: rice plants (transgenic Lines 26 and 29; Nt control); experiment: Greenhouse herbicide tests on rice
Text: We evaluated the response of transgenic rice to PURSUIT® imazethapyr application in the greenhouse. In this experiment, we included 2 transgenic lines and their untransformed counterpart (Nt). The transgenic lines, designated as Line 26 and 29, were T3 progeny derived from previously identified homozygous resistant transgenic plants containing the maize XI12 ahas2 gene driven by its own promoter. All seeds were pre-germinated in water for 2-3 days then grown in a planting mixture consisting of 1:1 soil and MetroMix 360 (The Scotts Company, Marysville, Ohio 43040) in 6-inch pots (2 seeds per pot) in the greenhouse and sprayed with PURSUIT® imazethapyr at 63, 125, or 250 g ai/ha. For post-emergence application, the plants were sprayed 15 days after seeding, at which time most plants had 3 leaves. For pre-emergence treatment, PURSUIT® imazethapyr was sprayed one day after seeding. Each treatment contained 20 plants and, and 3 replicates per treatment. One set of materials was not sprayed and used as control. The plants were grown in the greenhouse and harvested at maturity. The amount of PURSUIT® imazethapyr applied in this study (63, 125, or 250 g ai/ha) was close to 1, 2 or 4× field application rate for imi-resistant corn (refer to Table 3) since PURSUIT® imazethapyr is not currently labeled for use in rice fields. A custom designed belt sprayer was operated as described (Newhouse et al. 1992) for all herbicide applications. Five plants from each treatment were randomly chosen and individually measured for morphological traits. Means and standard deviations were calculated over three replications. Plant heights were measured from the base of the plant to the tip of the flag leaf 93 days after herbicide applications (DAH) and number of tillers per plant were counted 102-103 DAH. Data on number of panicles per plant and yield were collected after plants were harvested.
(§1) A total of 9 herbicides, 5 imidazolinones, two rice herbicides and ACCENT® (nicosulfuron) and CLASSIC® (clorimuron-ethyl) were applied in this study. Materials and methods were basically the same as described above, except that instead of 6″ pots, flats with 18 (3″×3″ per cell) cells were used, and 10-12 seeds were planted to one 3″×3″ cell. Ten plants were maintained in one cell in the post-emergence application. Each herbicide was sprayed at 4 different rates, 1, 2, 4, and 6×, as either pre or post-emergence applications with three replications per treatment. The name and amount of herbicide applied in this experiment and information relevant to their commercial applications are listed in Table 3. For simplicity and convenience, the lowest concentration used is referred as 1× rate, 2, 4 and 6× rates can be calculated as multiples of 1×.
(§2) To monitor plant response to various herbicides, data on fresh weight was collected. For pre-emergence applications, all plants from one cell were harvested 32 days after spraying (36-day old plants) and weighed. Twenty-nine days after herbicide application, 5 plants (44-day old plants) from each cell in the post-emergence application, were cut and weighed individually. Mean fresh weight for each treatment was calculated over three replications. The remaining 5 plants were grown in the greenhouse to maturity at which time, panicles of 3 plants were collected, and number of filled seeds and number of total kernels were counted to determine percentage of seed set.

[2] = test system: untransformed Nt rice plants; experiment: Response of rice plants to various herbicides, seed set in greenhouse; details: post-emergence, 1× g ai/ha: PURSUIT 62.5, CADRE 32, ARSENAL 24, RAPTOR 32, SCEPTER 125, ACCENT 35, CLASSIC 5, AC322,140 20, LONDAX 68
Text: as §1, §2

transgenic rice Line 29 = experiment: as above; details: post-emergence, 1× g ai/ha: PURSUIT 62.5, CADRE 32, ARSENAL 24, RAPTOR 32, SCEPTER 125, ACCENT 35, CLASSIC 5, AC322,140 20, LONDAX 68
Text: as §1, §2

transgenic rice Line 26 = experiment: as above; details: post-emergence, 1× g ai/ha: PURSUIT 62.5, CADRE 32, ARSENAL 24, RAPTOR 32, SCEPTER 125, ACCENT 35, CLASSIC 5, AC322,140 20, LONDAX 68
Text: as §1, §2

Structure (SMILES)	% seed-set ([2]; 1× rate) [%]	No. filled seeds/3 panicles ([2]; 1× rate)	Total No. of kernels/3 panicles ([2]; 1× rate)	% seed-set ([2]; 2× rate) [%]	No. filled seeds/3 panicles ([2]; 2× rate)	Total No. of kernels/3 panicles ([2]; 2× rate)	% seed-set ([2]; 4× rate) [%]	No. filled seeds/3 panicles ([2]; 4× rate)	Total No. of kernels/3 panicles ([2]; 4× rate)	% seed-set ([2]; 6× rate) [%]	No. filled seeds/3 panicles ([2]; 6× rate)	Total No. of kernels/3 panicles ([2]; 6× rate)	% seed-set (transgenic rice Line 29; 1× rate) [%]	No. filled seeds/3 panicles (transgenic rice Line 29; 1× rate)	Total No. of kernels/3 panicles (transgenic rice Line 29; 1× rate)	% seed-set (transgenic rice Line 29; 2× rate) [%]	No. filled seeds/3 panicles (transgenic rice Line 29; 2× rate)	Total No. of kernels/3 panicles (transgenic rice Line 29; 2× rate)	% seed-set (transgenic rice Line 29; 4× rate) [%]	No. filled seeds/3 panicles (transgenic rice Line 29; 4× rate)	other results
CCOC(=O)c1ccccc1S(=O)(=O)NC(=O)Nc1nc(Cl)cc(OC)n1 [CLASSIC ®, chlorimuron-ethyl]	87	87	99	92	90	97	0	0	0	0	0	0	88	115	130	85	112	132	37	35	effect on plant growth at 1× rates ([1]; post-emergence): greatly affected plant growth; Total No. of kernels/3 panicles (transgenic rice Line 29; 4× rate): 45; % seed-set (transgenic rice Line 29; 6× rate): 4%; No. filled seeds/3 panicles (transgenic rice Line 29; 6× rate): 5; Total No. of kernels/3 panicles (transgenic rice Line 29; 6× rate): 14; % seed-set (transgenic rice Line 26; 1× rate): 83%; No. filled seeds/3 panicles (transgenic rice Line 26; 1× rate): 95; Total No. of kernels/3 panicles (transgenic rice Line 26; 1× rate): 114; % seed-set (transgenic rice Line 26; 2× rate): 93%; No. filled seeds/3 panicles (transgenic rice Line 26; 2× rate): 100; Total No. of kernels/3 panicles (transgenic rice Line 26; 2× rate): 108; % seed-set (transgenic rice Line 26; 4× rate): 28%; No. filled seeds/3 panicles (transgenic rice Line 26; 4× rate): 26; Total No. of kernels/3 panicles (transgenic rice Line 26; 4× rate): 65; % seed-set (transgenic rice Line 26; 6× rate): 20%; No. filled seeds/3 panicles (transgenic rice Line 26; 6× rate): 10; Total No. of kernels/3 panicles (transgenic rice Line 26; 6× rate): 18
COC(=O)c1ccccc1CS(=O)(=O)NC(=O)Nc1nc(OC)cc(OC)n1 [LONDAX ®, bensulfuron-methyl]	85	147	172	93	142	154	91	113	127	96	109	114	80	125	156	90	133	148	87	155	effect on growth of all plants treated ([1]; transgenic and control plants): minimal effect; Total No. of kernels/3 panicles (transgenic rice Line 29; 4× rate): 177; % seed-set (transgenic rice Line 29; 6× rate): 86%; No. filled seeds/3 panicles (transgenic rice Line 29; 6× rate): 150; Total No. of kernels/3 panicles (transgenic rice Line 29; 6× rate): 175; % seed-set (transgenic rice Line 26; 1× rate): 80%; No. filled seeds/3 panicles (transgenic rice Line 26; 1× rate): 140; Total No. of kernels/3 panicles (transgenic rice Line 26; 1× rate): 173; % seed-set (transgenic rice Line 26; 2× rate): 90%; No. filled seeds/3 panicles (transgenic rice Line 26; 2× rate): 140; Total No. of kernels/3 panicles (transgenic rice Line 26; 2× rate): 156; % seed-set (transgenic rice Line 26; 4× rate): 65%; No. filled seeds/3 panicles (transgenic rice Line 26; 4× rate): 102; Total No. of kernels/3 panicles (transgenic rice Line 26; 4× rate): 136; % seed-set (transgenic rice Line 26; 6× rate): 89%; No. filled seeds/3 panicles (transgenic rice Line 26; 6× rate): 127; Total No. of kernels/3 panicles (transgenic rice Line 26; 6× rate): 143
CC(C)C1(C)N=C(c2nc3ccccc3cc2C(=O)O)NC1=O (centres unmarked) [SCEPTER ®, imazaquin]	0	0	0	0	0	0	0	0	0	0	0	0	87	138	159	86	143	165	85	131	average seed set in two transgenic lines ([1]; PURSUIT, RAPTOR, CADRE, SCEPTER at all rates tested, ARSENAL 1 to 2×): about 85%; rate at which growth of transgenic plants was slightly affected ([1]; post-emergence, fresh weight and visual observation): 6 ×; rate at which growth of both transgenic lines was affected ([1]; pre-emergence): ≥ 2 ×; Total No. of kernels/3 panicles (transgenic rice Line 29; 4× rate): 155; % seed-set (transgenic rice Line 29; 6× rate): 88%; No. filled seeds/3 panicles (transgenic rice Line 29; 6× rate): 139; Total No. of kernels/3 panicles (transgenic rice Line 29; 6× rate): 159; % seed-set (transgenic rice Line 26; 1× rate): 86%; No. filled seeds/3 panicles (transgenic rice Line 26; 1× rate): 148; Total No. of kernels/3 panicles (transgenic rice Line 26; 1× rate): 172; % seed-set (transgenic rice Line 26; 2× rate): 64%; No. filled seeds/3 panicles (transgenic rice Line 26; 2× rate): 87; Total No. of kernels/3 panicles (transgenic rice Line 26; 2× rate): 135; % seed-set (transgenic rice Line 26; 4× rate): 88%; No. filled seeds/3 panicles (transgenic rice Line 26; 4× rate): 147; Total No. of kernels/3 panicles (transgenic rice Line 26; 4× rate): 166; % seed-set (transgenic rice Line 26; 6× rate): 62%; No. filled seeds/3 panicles (transgenic rice Line 26; 6× rate): 86; Total No. of kernels/3 panicles (transgenic rice Line 26; 6× rate): 109
